One test has as its target T1, CYP19A1 (Homo sapiens, UniProt P11511).
T1 sequence (P11511 1-503): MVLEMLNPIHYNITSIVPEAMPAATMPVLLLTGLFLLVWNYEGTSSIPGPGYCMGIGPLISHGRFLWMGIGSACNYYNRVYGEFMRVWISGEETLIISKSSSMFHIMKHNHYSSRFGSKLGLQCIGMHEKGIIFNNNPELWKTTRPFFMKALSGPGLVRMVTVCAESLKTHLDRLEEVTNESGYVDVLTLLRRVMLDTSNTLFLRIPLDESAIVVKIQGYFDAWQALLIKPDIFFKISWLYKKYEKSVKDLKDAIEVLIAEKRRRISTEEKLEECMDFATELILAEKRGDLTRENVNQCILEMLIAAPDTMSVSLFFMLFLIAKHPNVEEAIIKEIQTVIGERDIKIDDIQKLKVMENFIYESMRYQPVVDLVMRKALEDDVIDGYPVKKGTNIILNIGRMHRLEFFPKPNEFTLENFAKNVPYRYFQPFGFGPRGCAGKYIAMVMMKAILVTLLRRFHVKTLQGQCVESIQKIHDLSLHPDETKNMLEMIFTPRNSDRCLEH
Description: Inhibition of CYP19A1 (Kragie et al.). Format: biochemical. The following applies: read-out: CYP19A1 IC50.

For the next test, the target named is T2, rhCYP17A1 (Homo sapiens, UniProt P05093).
T2 construct: purchased Cypex
T2 sequence (P05093 1-508): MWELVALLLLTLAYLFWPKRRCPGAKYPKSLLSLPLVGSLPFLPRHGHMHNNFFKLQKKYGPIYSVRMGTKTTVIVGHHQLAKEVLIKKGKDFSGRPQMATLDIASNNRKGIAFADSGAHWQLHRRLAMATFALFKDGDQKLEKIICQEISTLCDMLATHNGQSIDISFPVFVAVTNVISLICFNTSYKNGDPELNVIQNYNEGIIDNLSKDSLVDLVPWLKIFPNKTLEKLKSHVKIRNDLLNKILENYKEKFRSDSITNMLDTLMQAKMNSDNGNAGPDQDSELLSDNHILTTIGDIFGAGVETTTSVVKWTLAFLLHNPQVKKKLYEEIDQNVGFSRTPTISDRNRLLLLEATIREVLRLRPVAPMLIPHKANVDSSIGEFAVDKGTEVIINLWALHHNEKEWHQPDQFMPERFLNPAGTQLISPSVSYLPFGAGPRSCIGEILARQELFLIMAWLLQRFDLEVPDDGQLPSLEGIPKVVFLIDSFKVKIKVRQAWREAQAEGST
Description: Inhibition of CYP17A1, progesterone to 17-α-hydroxyprogesterone, mass spectrometry. Format: biochemical. The protocol: Compounds of the invention may also be evaluated for inhibition of CYP17A1 via the following assay:
Reactions are started by the addition of NADPH to 1 mM and allowed to proceed for 15 minutes at 37° C. Reactions are terminated by the addition of 40 μL of MeCN containing an internal standard for mass spectrometry. The plates are centrifuged at 3000 rpm for 5 min and the reaction product 17-α-hydroxyprogesterone is quantified by mass spectrometry. To determine the assay blank value (0% activity), NADPH is omitted from some reactions.
Dose dependent inhibition is quantified by the inclusion of compound at various concentrations. Maximum activity (100%) is defined by reactions containing NADPH, but without compound.

Test [1] concerns the target T3, aldosterone synthase (CYP11B2) (Macaca fascicularis, UniProt A0A2K5UPL9).
T3 construct: employ cynomolgus adrenal gland mitochondria as the source of aldosterone synthase (CYP11B2); from tissue; host or cells: cynomolgus monkey adrenal gland mitochondria
T3 sequence (A0A2K5UPL9 1-503): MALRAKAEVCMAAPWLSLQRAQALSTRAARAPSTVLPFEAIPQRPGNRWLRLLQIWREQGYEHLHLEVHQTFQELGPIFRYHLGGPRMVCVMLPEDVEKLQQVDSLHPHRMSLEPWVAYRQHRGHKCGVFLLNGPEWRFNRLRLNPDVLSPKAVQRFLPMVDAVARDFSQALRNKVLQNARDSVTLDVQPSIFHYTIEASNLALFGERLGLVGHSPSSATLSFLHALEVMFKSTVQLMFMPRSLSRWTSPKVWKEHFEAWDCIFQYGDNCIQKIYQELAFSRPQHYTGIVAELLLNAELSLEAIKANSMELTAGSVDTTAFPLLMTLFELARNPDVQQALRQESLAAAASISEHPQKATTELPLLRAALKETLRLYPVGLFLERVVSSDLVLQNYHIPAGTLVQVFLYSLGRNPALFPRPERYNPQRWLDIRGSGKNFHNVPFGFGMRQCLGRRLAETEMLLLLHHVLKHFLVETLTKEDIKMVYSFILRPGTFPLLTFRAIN
Description: Inhibition of aldosterone synthase, cynomolgus adrenal mitochondria, aldosterone quantified by mass spectrometry. Format: biochemical, cynomolgus monkey. The following applies: 2 μM corticosterone, 90 minutes at 37° C. Summed up:
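Cynomolgus adrenal mitochondria (50 units CYP11B2 activity) incubated with 2 μM corticosterone in 100 mM potassium phosphate pH 7.4, 1% DMSO; started with 1 mM NADPH, 90 min at 37 °C. Aldosterone quantified by mass spectrometry; no-NADPH blank as 0%, no-compound as 100% activity, across compound concentrations.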

For test [2], the target named is cortisol synthase (CYP11B1) (Macaca fascicularis, UniProt A0A2K5ULY1). The test can be described thus: Inhibition of cortisol synthesis, cynomolgus adrenal mitochondria, 11-deoxycortisol as substrate. Format: biochemical, cynomolgus monkey. As to conditions: 150 units of CYP11B1, 11-deoxycortisol as substrate.
Where [3] appears, read: rhCYP17A1, 150 nM progesterone, 15 minutes at 37° C.; read-out: CYP17A1 IC50.
[4] abbreviates: cynomolgus adrenal mitochondria, read-out: Cortisol Inhibition IC50.

pIC50: −log10 of the molar value. Read-outs that look alike come from different tables or passages of the source.

Consider `CC1(C)Cc2ncn(-c3ccc(F)c(F)c3)c2C(=O)O1` [Compound 2, 3-(3,4-difluorophenyl)-6,6-dimethyl-3H,4H,6H,7H-pyrano[3,4-d]imidazol-4-one], for which the pIC50 on CYP19A1 is less than 4.70; at rhCYP17A1 (setting [3]) it was less than 4.70; in test [1] it was 7.04; in test [2] (setting [4]), 5.47.
As to `CC1(CO)Cc2ncn(-c3ccc(Cl)c(Cl)c3)c2C(=O)O1` (single isomer, unassigned) [Compound 30B, 3-(3,4-dichlorophenyl)-6-(hydroxymethyl)-6-methyl-3H,4H,6H,7H-pyrano[3,4-d]imidazol-4-one], the pIC50 was less than 4.70 on CYP19A1, less than 4.70 on rhCYP17A1 (setting [3]), 7.51 in test [1] and 5.28 in test [2] (setting [4]).
For the compound `N#Cc1ccc(-n2cnc3c2C(=O)OC(CO)C3)cc1Cl` (single isomer, unassigned) [Compound 33B, 2-chloro-4-[6-(hydroxymethyl)-4-oxo-3H,4H,6H,7H-pyrano[3,4-d]imidazol-3-yl]benzonitrile], the pIC50 on CYP19A1 is less than 4.70; on rhCYP17A1 (read-out: CYP17A1 IC50; rhCYP17A1, 150 nM progesterone, 15 minutes at 37° C.), less than 4.70; in test [1], 7.57; in test [2] (Cortisol Inhibition IC50, cynomolgus adrenal mitochondria) it was 4.85.
In the case of `CC1(CO)Cc2ncn(-c3cccc(F)c3Cl)c2C(=O)O1` (single isomer, unassigned) [Compound 34B, 3-(2-chloro-3-fluorophenyl)-6-(hydroxymethyl)-6-methyl-3H,4H,6H,7H-pyrano[3,4-d]imidazol-4-one], the pIC50 was less than 4.70 on CYP19A1, less than 4.70 on rhCYP17A1 (setting [3]), 6.92 in test [1] and 4.72 in test [2] (setting [4]).

For the origin of these results see patent US9334285B2, “Aldosterone synthase inhibitors” (Boehringer Ingelheim International GmbH, priority 2014, dated 2016).
